According to patent US10435361B2, “Kinase inhibitors” (Topivert Pharma Limited, priority 2013, dated 2019):
Like-named read-outs stand apart in the source and are kept apart here.

Experiments:
Lewis rats = experiment: Endotoxin-induced uveitis in rats; type: in vivo; conditions: rats treated with intravitreal endotoxin LPS
Method: Male, Lewis rats (6-8 weeks old, Charles River UK Limited) are housed in cages of 3 at 19-21° C. with a 12 h light/dark cycle (07:00/19:00) and fed a standard diet of rodent chow and water ad libitum. Non-fasted rats are weighed, individually identified on the tail with a permanent marker, and receive a single intravitreal administration into the right vitreous humor (5 μL dose volume) of 100 ng/animal of LPS (Escherichia coli 0111:B4 prepared in PBS, Sigma Aldrich, UK) using a 32-gauge needle. Untreated rats are injected with PBS. Test compound, dexamethasone (Dex) or vehicle (20% hydroxypropyl-β-cyclodextrin, 0.1% HPMC, 0.01% Benzalkonium chloride, 0.05% EDTA, 0.7% NaCl in deionised water) are administered by the topical route onto the right eye (10 μL) of animals 30 minutes prior to LPS, at the time of LPS administration, and 1, 2 and 4 hours post LPS administration. Before administration, the solution or suspension to be administered is agitated for 5 minutes to ensure a uniform suspension. 6 hours after LPS dosing, animals are euthanized by overdose with pentobarbitone (i.v.). Following euthanasia, the right eye of each animal is enucleated and dissected into front (anterior) and back (posterior) sections around the lens. Each section is weighed and homogenised in 500 μL of sterile phosphate buffered saline followed by 20 minutes centrifugation at 12000 rpm at 4° C. The resulting supernatant is divided into 3 aliquots and stored at −80° C. until subsequent cytokine analysis by R&D DuoSet ELISA.

[1] = test system: Salmonella typhimurium TA100; experiment: Bacterial reverse mutation screen, strain TA100; type: cell-based; conditions: presence or absence of S-9 mix; up to 1000 μg/plate analysable
Method: Studies were conducted by Sequani (Ledbury, Herefordshire, UK) to assess compounds of the invention for their ability to induce mutations in two histidine dependent auxotrophic mutants of Salmonella typhimurium, strains TA98 and TA100 in vitro.
The mutation screen was conducted using the plate incorporation method and was performed in both the presence and absence of S-9 mix (a liver post-mitochondrial fraction derived from the livers of Aroclor 1254 treated rats). The bacteria were exposed to test compounds dissolved in dimethylsulphoxide, which solvent was also used as the negative control. The dose levels used were 0.32, 1.6, 8, 40, 200, 1000 or 5000 μg/plate.
Precipitation was also noted in both strains at 1000 μg/plate in the presence and absence of S-9 mix.

d-U937 cells = experiment: LPS-induced TNFα/IL-8 release in d-U937 cells; type: cell-based; conditions: Homo sapiens, dU937, assay (aa)
Method: U937 cells, a human monocytic cell line, are differentiated to macrophage-type cells by incubation with phorbol myristate acetate (PMA; 100 ng/mL) for 48 to 72 hr. Cells are pre-incubated with final concentrations of test compound for 2 hr and are then stimulated with 0.1 μg/mL of LPS (from E. Coli: 0111:B4, Sigma) for 4 hr. The supernatant is collected for determination of TNFα and IL-8 concentrations by sandwich ELISA (Duo-set, R&D systems). […] The relative 50% effective concentration (REC50) is determined from the resultant concentration-response curve. The inhibition of IL-8 production is calculated at each concentration of test compound by comparison with vehicle control.

HT29 cells = experiment: IL-1β-induced IL-8 release in HT29 cells; type: cell-based; conditions: Homo sapiens, HT-29, assay (d), read-out: IC50 Values for Inhibition of Cytokine Release HT29 cells IL-8
Method: HT29 cells, a human colon adenocarcinoma cell line, are plated in a 96 well plate (24 hr) and pre-treated with compounds at the desired concentration for 2 hours before addition of 5 ng/mL of IL-1β (Abcam) for 24 hours. Supernatants are harvested for IL-8 quantification by Sandwich ELISA (Duo-set, R&D System). The IC50 is determined from the dose response curve.

[2] = Plasma pharmacokinetics and total colon tissue distribution in mice, single oral administration; type: in vivo, C57BL/6 mice; conditions: male, C57BL/6, mouse, 5 mg/kg, read-out: Median plasma concentration
Method: Studies were conducted by Sai Life Sciences (Hinjewadi, Pune, India) to investigate the plasma pharmacokinetics and total colon tissue distribution of compounds of the invention. In particular, pharmacokinetic studies were carried out in: • male C57BL/6 mice, following a single oral administration; and • male Wistar rats following a single intravenous or oral administration.

[3] = Analysis of metabolites after incubation with hepatocytes; type: in vitro ADME; conditions: rat, Cynomolgus macaque, human hepatocytes
Method: Studies were conducted by BioFocus (Saffron Walden, UK) to determine the metabolic fate of the compound of Example 16 following incubation with rat, Cynomolgus macaque or human hepatocytes.
Separate incubations (n=3) of the compound of Example 16 (10 μM initial concentration) or DMSO control, were performed with cryopreserved hepatocytes from each species (0.5 million cell/mL) at 37° C. for 0, 60 and 90 minutes before termination of reactions and compound extraction with acetonitrile. Sample replicates were pooled prior to analysis.
Potential metabolites were identified using time-of-flight (TOF) and triple quadruple (TQ) mass spectrometers.

Compound	cytokine levels in the anterior and posterior segments of the eyes (Lewis rats)	increases in revertant colonies, strain TA100 [1]	IC50 (d-U937 cells; method: relative to 10 μg/mL BIRB796 (REC50), read-out: IC50 Values for Inhibition of Cytokine Release dU937 cells TNFα)	IC50 (d-U937 cells; read-out: IC50 Values for Inhibition of Cytokine Release dU937 cells IL-8)	IC50 (HT29 cells)	concentration at 1 h [2]	concentration at 2 h [2]	concentration at 4 h [2]	concentration at 6 h [2]	concentration at 8 h [2]	concentration at 12 h [2]	concentration at 24 h [2]	number of metabolites formed in hepatocytes ([3]; 10 μM, 0, 60 and 90 minutes)	metabolism at the naphthalene moiety ([3]; 10 μM)
COCCOCCOCCOc1cc(Nc2nccc(Oc3ccc(NC(=O)Nc4cc(C(C)(C)C)cc(NS(C)(=O)=O)c4OC)c4ccccc34)n2)cc(OC)c1 [Example 4, N-(5-(tert-Butyl)-2-methoxy-3-(3-(4-((2-((3-methoxy-5-(2-(2-(2-methoxyethoxy)ethoxy)-ethoxy)phenyl)amino)pyrimidin-4-yl)oxy)naphthalen-1-yl)ureido)phenyl)methanesulfonamide]	significantly reduced	no dose-related or statistically significant increases in revertant colonies	1 nM	0.8 nM	4.9 nM									
C#Cc1cc(Nc2nccc(Oc3ccc(NC(=O)Nc4cc(C(C)(C)C)cc(NS(C)(=O)=O)c4OC)c4ccccc34)n2)cc(C(=O)NCCOCCOCCOC)c1 [Example 16, 3-((4-((4-(3-(5-(tert-Butyl)-2-methoxy-3-(methylsulfonamido)phenyl)ureido)naphthalen-1-yl)oxy)pyrimidin-2-yl)amino)-5-ethynyl-N-(2-(2-(2-methoxyethoxy)ethoxy)ethyl)benzamide]		no dose-related or statistically significant increases in revertant colonies			8 nM	0 µg/mL	0 µg/mL	0 µg/mL	0 µg/mL	0 µg/mL	0 µg/mL	0 µg/mL	9	no products were noted that could be connected to metabolism at the naphthalene moiety
COc1cc(Nc2cc(Oc3ccc(NC(=O)Nc4cc(C(C)(C)C)cc(NS(C)(=O)=O)c4OC)c4ccccc34)ccn2)cc(C(=O)NCCN2CCOCC2)c1 [Example 27, 3-((4-((4-(3-(5-(tert-Butyl)-2-methoxy-3-(methylsulfonamido)phenyl)ureido)naphthalen-1-yl)oxy)pyridin-2-yl)amino)-5-methoxy-N-(2-morpholinoethyl)benzamide]	significantly reduced	no dose-related or statistically significant increases in revertant colonies			8.3 nM									
